Laboratory results published in patent publication US4322496A, “Inhibition of lactate oxidase” (Eastman Kodak Company, priority 1980, dated 1982).
Like-named read-outs stand apart in the source and are kept apart here.

Tests used:
L-Lactate Oxidase = biological target: T1, L-Lactate Oxidase (Enterococcus casseliflavus, UniProt C9AC47); assay: biochemical; conditions: for inhibition at 10000 µM: acid 10mM, read-out: LO % Inhibition; for inhibition of the enzymatic activity of lactate oxidase: measured at 30° C.
T1 sequence (C9AC47 1-367): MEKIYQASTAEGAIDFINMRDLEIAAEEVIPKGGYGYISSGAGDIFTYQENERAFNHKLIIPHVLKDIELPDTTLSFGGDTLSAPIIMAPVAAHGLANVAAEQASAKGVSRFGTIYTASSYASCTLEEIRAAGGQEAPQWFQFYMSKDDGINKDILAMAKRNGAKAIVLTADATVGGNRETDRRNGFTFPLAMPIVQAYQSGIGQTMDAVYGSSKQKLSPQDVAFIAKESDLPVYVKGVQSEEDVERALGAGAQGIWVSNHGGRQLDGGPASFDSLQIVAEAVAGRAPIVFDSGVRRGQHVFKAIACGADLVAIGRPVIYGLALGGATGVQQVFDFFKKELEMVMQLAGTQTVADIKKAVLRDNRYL
Experimental: (§1) In the examples, oxidative enzymes were prepared from Streptococcus faecium ATCC 12755. L-lactate oxidase was isolated from Streptococcus faecium as a 0-50% ammonium sulfate fraction as described in Esders et al., U.S. Pat. No. 4,166,763 issued Sept. 4, 1979. L-α-glycerophosphate oxidase was purified from Streptococcus faecium as described in Table V, of Research Disclosure Publication No. 16146 published Sept. 10, 1977.
In the examples, enzyme assays for lactate oxidase were carried out as follows: Assay reaction mixtures contained in a total volume of 1.0 ml: 100 μmoles potassium phosphate buffer, pH 7.0, 25 μmoles lactic acid, […] horseradish peroxidase (4.6 purpurogallin units), and 0.25 μmoles orthodianisidine. Compounds to be tested as potential inhibitors for lactate oxidase were added to the assay reaction mixtures as indicated in Example 1. Samples were equilibrated at 30° C. and then reactions were initiated by addition of Streptococcus faecium lactate oxidase. Absorbance at 430 nm was measured in a Beckman 25 spectrophotometer. Initial rates were calculated from the linear portion of the curve.

[1] = biological target: T2, L-α-Glycerophosphate Oxidase (Enterococcus casseliflavus, UniProt O86963); assay: L-α-glycerophosphate oxidase enzyme assay (absorbance at 430 nm); assay type: biochemical; conditions: for inhibition at 5000 µM: compound at 5 mM, 37° C., pH 7.0, read-out: L-α-Glycerophosphate Oxidase Percent Inhibition
T2 construct: L-α-glycerophosphate oxidase was purified from Streptococcus faecium; made in house; host or cells: Streptococcus faecium ATCC 12755 (native organism, not recombinant)
T2 sequence (O86963 1-609): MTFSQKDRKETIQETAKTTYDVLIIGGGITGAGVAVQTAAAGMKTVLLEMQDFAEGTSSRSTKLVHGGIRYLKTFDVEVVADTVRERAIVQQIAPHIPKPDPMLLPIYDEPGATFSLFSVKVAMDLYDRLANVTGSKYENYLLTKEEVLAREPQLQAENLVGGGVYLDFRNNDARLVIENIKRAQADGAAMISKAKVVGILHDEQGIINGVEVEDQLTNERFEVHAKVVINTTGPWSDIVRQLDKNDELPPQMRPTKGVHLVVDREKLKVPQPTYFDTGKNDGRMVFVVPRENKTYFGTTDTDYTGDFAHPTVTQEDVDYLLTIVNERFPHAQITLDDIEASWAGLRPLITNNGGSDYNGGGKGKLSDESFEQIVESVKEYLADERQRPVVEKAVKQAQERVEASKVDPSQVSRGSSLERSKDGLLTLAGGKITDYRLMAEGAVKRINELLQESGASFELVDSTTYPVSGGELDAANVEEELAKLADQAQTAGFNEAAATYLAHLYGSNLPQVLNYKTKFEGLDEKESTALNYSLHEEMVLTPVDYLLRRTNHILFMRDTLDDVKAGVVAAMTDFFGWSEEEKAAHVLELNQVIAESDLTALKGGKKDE
Experimental: as §1, with “1977. Extensively purified L-α-glycerophosphate oxidase (material carried through the whole purification sequence) contained L-α-glycerophosphate:lactate oxidase activity ratios of (1700-3000:1), whereas the partially purified L-α-glycerophosphate oxidase (material isolated as the 50-80% ammonium sulfate fraction) contained L-α-glycerophosphate:lactate oxidase activity ratios of 30-100:1.” for “1977.”
In the examples, enzyme assays for L-α-glycerophosphate oxidase were carried out as follows: Assay reaction mixtures contained in a total volume of 1.0 ml: 100 μmoles potassium phosphate buffer, pH 7.0, 66 μg orthodianisidine, 25 μg horseradish peroxidase (4.6 purpuragallin units) and 200 μmoles DL-α-glycerophosphate (at pH 7.0). Compounds to be tested as potential inhibitors were added to the reaction mixtures as indicated in Example 1. Samples were equilibrated at 37° C. and the reactions were initiated by the addition of an aliquot of enzyme. Absorbance at 430 nm was measured in a Beckman 25 spectrophotometer. Initial rates were calculated from the linear portion of the curve.

[2] = biological target: T3, beef meat lactate dehydrogenase (Bos taurus, UniProt P19858); assay: LDH assay reaction mixture (pyruvate/NADH); assay type: biochemical; conditions: acid 10 mM; pH 7.5
T3 construct: beef meat lactate dehydrogenase; from tissue; host or cells: beef meat (skeletal muscle)
Experimental: The effect of these acids on LO was evaluated by studying an LO assay reaction mixture having the composition described above. The effect of these acids on LDH was evaluated by studying an LDH assay reaction mixture which contained in a total volume of 1.0 ml: 50 μmoles potassium phosphate buffer (pH 7.5); 1 μmole sodium pyruvate; 0.13 μmole NADH; 0.02 μg beef meat lactate dehydrogenase (320 U/mg) and the acid at a concentration of 10 mM. In the absence of acid, the rate of reaction was assumed to be 100% and the percent inhibition of each reaction was calculated accordingly.

[3] = biological target: T4, lactate oxidase activity in partially purified L-α-glycerophosphate oxidase (Enterococcus casseliflavus, UniProt C9AC47); assay: Lactate blank reaction in dry chemistry triglyceride test element; assay type: biochemical; conditions: for Response to Lactate (DR): partially purified α-GPO, 10 μl DL-lactate 20 mg/dl, 540 nm, 7 min, 37° C.
T4 sequence (C9AC47 1-367): T1 sequence (C9AC47 1-367)
Experimental: (§2) In the examples, non-fibrous, multilayer, "dry chemistry" analytical elements for determination of serum triglycerides were formulated having the following structure and composition: […]
(§3) The enzymatic reagent layer composition of the above-noted "dry chemistry" analytical element contained deionized gelatin (5.4 g/m^2); gel hardener (32.4 mg/m^2); poly(methyl acrylate-co-2-acrylamido-2-methylpropanesulfonic acid-co-2-acetoacetoxyethyl methacrylate) having a monomer weight ratio of (88.8:4.7:6.5) as peroxidase stabilizer (5.4 g/m^2); 0.05 M potassium phosphate buffer, pH 7.0; Triton X-100 surfactant (389 mg/m^2); 2-(3,5-dimethoxy-4-hydroxyphenyl)4,5-bis(4-dimethylaminophenyl)imidazole as a leuco dye (405 mg/m^2 dispersed in 2,4-di-n-amylphenol (4.05 g/m^2); antioxidant (324 mg/m^2); MgCl (103 mg/m^2); adenosinetriphosphate (1.35 g/m^2); peroxidase (7020 U/m^2); glycerol kinase (324 U/m^2); and either purified or partially purified L-α-glycerophosphate oxidase (2840 U/m^2). When the partially purified L-α-glycerophosphate oxidase was used, glycolate was incorporated into that layer in the amounts noted below in Example 2.
A. Dry Chemistry Test Element Mode: Dry chemistry analytical elements for the determination of triglycerides were prepared with either the purified or partially purified L-α-GPO as described above. To each element, a 10 μl sample of DL-lactate (20 mg/dl) was applied and the reflection density of the element, DR, at 540 nm was measured through the element support after a seven-minute incubation at 37° C.

[4] = biological target: T5, lactate oxidase activity in partially purified DL-α-glycerophosphate oxidase (Enterococcus casseliflavus, UniProt C9AC47); assay: Lactate/serum blank reaction, solution mode; assay type: biochemical; conditions: 10 min, 37° C.; for Response to Normal Serum ΔA490: 20 μl normal serum
T5 sequence (C9AC47 1-367): T1 sequence (C9AC47 1-367)
Experimental: Solution incubation mixtures contained in a total volume of 1.0 ml: 100 μmoles potassium phosphate buffer, pH 7.0, 0.12 mg 4-aminoantipyrene.HCl, 0.04 mg 1,7-dihydroxynaphthalene, 25 μg horseradish peroxidase (4.6 purpurogallin units), 0.36 units glycerol kinase, 4.6 units partially purified DL-α-glycerophosphate oxidase, and 10 mg Triton X-100. Reactions were initiated by addition of 20 μl of normal serum or 50 μl of 1 mM Dl-lactate, and after ten minutes at 37° C., the absorbance was measured at 490 nm. In each case, a reagent blank (all components except substrate) was subtracted to give the change in absorbance at 490 nm, ΔA490.

[5] = test system: components of the triglyceride detection system; assay: Response of dry chemistry triglyceride test elements to test fluids; conditions: 81 or 405 mg/m^2 glycolate in element
Experimental: as §2
as §3, with “When the partially purified L-α-glycerophosphate oxidase was used, glycolate was incorporated into that layer in the amounts noted below in Example 2.” left out
Dry chemistry analytical elements (as described above) containing purified L-α-glycerophosphate oxidase and partially purified enzyme plus two different levels of glycolate were compared for response to serum triglycerides and glycerol. […] After a sevenminute incubation at 37° C., the reflection density, DR, at 540 nm was measured through the element support. […]

[6] = compound at 5 mM, 30° C., pH 7.0, rate without compound = 100%, read-out: L-Lactate Oxidase Percent Inhibition
[7] = pH 7, read-out: L-Lactate Oxidase Percent Inhibition

SMILES | inhibition of lactate oxidase activity (in words) (L-Lactate Oxidase) | inhibition at 5000 µM (L-Lactate Oxidase; [6]) [%] | inhibition of the enzymatic activity of lactate oxidase (L-Lactate Oxidase) [%] | further results
O=C(O)C(=O)O [Oxalic Acid] | greatly inhibit | 94 |  | inhibition at 10000 µM (L-Lactate Oxidase): 94%; inhibition of L-α-GPO (in words) [1]: do not inhibit; inhibition at 5000 µM [1]: 0%; inhibition at 10000 µM [2]: 100%
NCC(=O)O [Glycine] | little or no inhibition |  |  | inhibition at 5000 µM (L-Lactate Oxidase; [7]): 0%
O=C(O)CC(=O)O [Malonic Acid] |  | 30 | < 50 | 
NC(=O)C(N)=O [Oxamide] |  | 43 | < 50 | 
CC(O)C(N)=O (stereo not shown) [Lactamide] | little or no inhibition | 0 |  | 
NC(=O)C(=O)O [Oxamic Acid] |  | 40 | < 50 | 
O=C(O)C(O)CO (racemic) [Glyceric Acid] |  | 21 | < 50 | 
O=C(O)C(O)C(=O)O [Tartronic Acid] |  | 10 |  | 
O=C(O)CO [Glycolic Acid] | greatly inhibit | 90 |  | inhibition at 10000 µM (L-Lactate Oxidase): 90%; inhibition of L-α-GPO (in words) [1]: do not inhibit; inhibition at 5000 µM [1]: 0%; inhibition at 10000 µM [2]: 11%; lactate blank relative to control (purified α-GPO) ([3]; 81 mg/m^2 glycolic acid): 1.6 times control; Response to Lactate (DR) ([3]; 81 mg/m^2 glycolic acid): 0.04; reaction with lactate compared with control (purified α-GPO) ([3]; 405 mg/m^2 glycolic acid): less than that observed with the purified L-α-glycerophosphate oxidase; Response to Lactate (DR) ([3]; 405 mg/m^2 glycolic acid): 0.01; Response to Normal Serum ΔA490 ([4]; glycolate 1 mM): 0.006; Response to 50 μM DL-Lactate ΔA490 ([4]; glycolate 1 mM): 0.008; Response to Normal Serum ΔA490 ([4]; glycolate 2 mM): 0; Response to 50 μM DL-Lactate ΔA490 ([4]; glycolate 2 mM): 0; Response to Normal Serum ΔA490 ([4]; glycolate 3 mM): 0; Response to 50 μM DL-Lactate ΔA490 ([4]; glycolate 3 mM): 0; inhibition of the components of the triglyceride detection system (in words) [5]: did not inhibit any of the components of the triglyceride detection system
CC(O)CC(=O)O (stereo not drawn) [β-Hydroxybutyric Acid] | little or no inhibition | 0 |  | 
O=CC(=O)O [Glyoxalic Acid] | inhibited the enzyme | 100 |  | inhibition at 10000 µM (L-Lactate Oxidase): 100%; inhibition of L-α-GPO (in words) [1]: inhibited L-α-GPO as well; inhibition at 5000 µM [1]: 100%; inhibition at 10000 µM [2]: 15%
COCC(=O)O [Methoxyacetic Acid] | little or no inhibition |  |  | inhibition at 5000 µM (L-Lactate Oxidase; [7]): 0%
O=C(O)CCC(=O)C(=O)O [α-Ketoglutaric Acid] | little or no inhibition |  |  | inhibition at 5000 µM (L-Lactate Oxidase; [7]): 0%
O=C(O)CC(O)C(=O)O (stereo not shown) [Malic Acid] | little or no inhibition | 0 |  | 
CCC(O)C(=O)O (stereo not drawn) [α-Hydroxybutyric Acid] |  | 7 | < 50 | 
